The text below walks through data of patent publication US10745384B2, “Indazole derivatives as αv integrin antagonists” (BRISTOL-MYERS SQUIBB COMPANY, priority 2016, dated 2020).

Assay [1] addresses T1, human αVβ6 (Homo sapiens, UniProt P06756+P18564).
T1 construct: purchased R & D systems 3817-AV
The experiment in a line: human αVβ6 HTRF binding assay. As to conditions: recombinant human αVβ6 integrin, FITC-conjugated fibronectin. The gist of the method:
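HTRF binding in 20 mM Tris pH 7.4 with 1 mM MgCl2, 1 mM MnCl2, 0.01% Tween 20 and 0.01% BSA. For αVβ6, biotinylated integrin (1.25 nM) and FITC-fibronectin (5 nM) were incubated 1 h at RT, then streptavidin-terbium (0.625 nM) was added overnight in the dark. An SPA-based fibronectin binding format was an alternative.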
(TR-FRET usually uses a lanthanide donor and a delayed reading to cut background.)

For assay [2], the target named is human αVβ1 (Homo sapiens, UniProt P05556+P06756). The experiment in a line: human αVβ1 HTRF binding assay. The procedure: (§1) All binding assays used the HTRF (homogeneous time resolved fluorescence) technology from Cisbio International, therefore all assays are described as HTRF binding assays. The assay results for the Examples are listed above together with the characterization data. The HTRF binding assays are established for the following integrins: human αVβ6, human αVβ1, human αVβ3, human αVβ5, and human αVβ8. All assays used the following assay buffer: 20 mM Tris, pH 7.4, 1 mM MgCl2, 1 mM MnCl2, 0.01% Tween 20, and 0.01% BSA. Alternatively, a SPA-based assay was used for evaluation of receptor binding.
(§2) The following describes the components and a representative procedure for the human αVβ6 HTRF binding assay: Recombinant human αVβ6 Integrin (R & D systems, 3817-AV) was biotinylated. Biotinylated human αVβ6 Integrin was added to assay vessel at a final concentration of 1.25 nM. FITC-conjugated fibronectin (Cytoskeleton, FNR02) was then added at the final concentration of 5 nM. The mixture was centrifuged at 600 rpm for three minutes using Thermo Fisher Heraeus Multifuge X3 centrifuge and then incubated at room temperature for an hour. Streptavidin Terbium (Cisbio international 610STLB) was then added at the final concentration of 0.625 nM. The resulting mixture was centrifuged at 600 rpm for three minutes using Thermo Fisher Heraeus Multifuge X3 centrifuge and then incubated at room temperature overnight in dark before reading HTRF signals.
The SPA-based assay was carried out according to the protocol and procedures similar to the ones described in the following reference with appropriate modifications to agents and ligands which are readily understood by one skilled in the art: Pachter J A, Zhang R, Mayer-Ezell R., “Scintillation proximity assay to measure binding of soluble fibronectin to antibody-captured αVβ1 integrin” Anal Biochem. 1995 Sep. 1; 230(1):101-7.

Assay [3] concerns the target human αVβ3 (Homo sapiens, UniProt P05106+P06756). The experiment in a line: human αVβ3 HTRF binding assay. The procedure:
as §1
as §2, with “signals. […]” for “signals.”

The target in assay [4] is human αVβ5 (Homo sapiens, UniProt P06756+P18084). The experiment in a line: human αVβ5 HTRF binding assay. The procedure:
as §1
as §2, with “signals. […]” for “signals.”

Assay [5] has as its target human αVβ8 (Homo sapiens, UniProt P06756+P26012). The experiment in a line: human αVβ8 HTRF binding assay. As for the experimental part:
as §1
as §2, with “signals. […]” for “signals.”

Structures can show the parent of a compound that is named as a salt.

human αVβ5, sequence (P06756 31-992 limits assumed): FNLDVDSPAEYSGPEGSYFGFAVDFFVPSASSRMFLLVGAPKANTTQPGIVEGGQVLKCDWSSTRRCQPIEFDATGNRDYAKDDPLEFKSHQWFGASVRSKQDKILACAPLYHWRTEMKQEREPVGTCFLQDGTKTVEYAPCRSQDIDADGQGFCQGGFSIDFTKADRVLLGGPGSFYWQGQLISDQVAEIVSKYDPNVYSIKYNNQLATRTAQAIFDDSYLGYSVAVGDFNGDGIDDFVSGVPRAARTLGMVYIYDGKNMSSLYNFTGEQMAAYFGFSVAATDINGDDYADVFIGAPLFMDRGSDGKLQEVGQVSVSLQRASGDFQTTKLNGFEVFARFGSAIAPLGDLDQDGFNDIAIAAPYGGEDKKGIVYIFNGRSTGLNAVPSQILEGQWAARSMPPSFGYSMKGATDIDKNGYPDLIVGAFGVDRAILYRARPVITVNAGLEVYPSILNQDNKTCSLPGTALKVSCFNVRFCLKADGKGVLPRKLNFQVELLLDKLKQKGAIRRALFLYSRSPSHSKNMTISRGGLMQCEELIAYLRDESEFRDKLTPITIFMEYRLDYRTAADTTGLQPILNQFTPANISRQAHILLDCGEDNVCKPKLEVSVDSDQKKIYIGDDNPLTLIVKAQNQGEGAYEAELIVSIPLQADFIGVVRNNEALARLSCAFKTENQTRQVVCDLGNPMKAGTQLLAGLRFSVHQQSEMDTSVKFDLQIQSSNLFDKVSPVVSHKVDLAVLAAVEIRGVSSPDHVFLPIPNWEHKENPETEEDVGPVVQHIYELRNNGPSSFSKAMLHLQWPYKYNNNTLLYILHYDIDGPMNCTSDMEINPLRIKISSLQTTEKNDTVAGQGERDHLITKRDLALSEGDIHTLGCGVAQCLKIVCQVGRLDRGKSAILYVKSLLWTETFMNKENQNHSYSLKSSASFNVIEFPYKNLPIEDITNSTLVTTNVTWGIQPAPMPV
human αVβ5, sequence (P18084 24-719 limits assumed): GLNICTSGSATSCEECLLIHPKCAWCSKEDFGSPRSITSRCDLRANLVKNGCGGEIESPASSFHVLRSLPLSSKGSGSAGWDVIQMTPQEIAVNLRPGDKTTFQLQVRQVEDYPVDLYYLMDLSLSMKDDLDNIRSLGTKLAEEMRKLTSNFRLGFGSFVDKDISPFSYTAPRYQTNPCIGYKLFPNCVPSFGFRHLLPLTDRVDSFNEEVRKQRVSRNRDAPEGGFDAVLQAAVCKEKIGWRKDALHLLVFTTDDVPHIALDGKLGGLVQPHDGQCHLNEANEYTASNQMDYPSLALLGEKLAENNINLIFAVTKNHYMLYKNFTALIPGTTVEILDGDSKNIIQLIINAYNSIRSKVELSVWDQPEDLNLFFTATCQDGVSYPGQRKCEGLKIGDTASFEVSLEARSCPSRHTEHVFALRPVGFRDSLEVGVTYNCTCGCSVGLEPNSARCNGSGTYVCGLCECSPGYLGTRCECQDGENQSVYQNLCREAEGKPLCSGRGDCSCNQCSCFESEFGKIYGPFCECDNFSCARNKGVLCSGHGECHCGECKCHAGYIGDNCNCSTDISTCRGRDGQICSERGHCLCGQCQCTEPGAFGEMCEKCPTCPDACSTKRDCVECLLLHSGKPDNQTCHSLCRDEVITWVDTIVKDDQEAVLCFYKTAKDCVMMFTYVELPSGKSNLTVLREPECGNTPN
human αVβ3, sequence (P06756 31-992 limits assumed): as the sequence (P06756 31-992 limits assumed) above
human αVβ3, sequence (P05106 27-718 limits assumed): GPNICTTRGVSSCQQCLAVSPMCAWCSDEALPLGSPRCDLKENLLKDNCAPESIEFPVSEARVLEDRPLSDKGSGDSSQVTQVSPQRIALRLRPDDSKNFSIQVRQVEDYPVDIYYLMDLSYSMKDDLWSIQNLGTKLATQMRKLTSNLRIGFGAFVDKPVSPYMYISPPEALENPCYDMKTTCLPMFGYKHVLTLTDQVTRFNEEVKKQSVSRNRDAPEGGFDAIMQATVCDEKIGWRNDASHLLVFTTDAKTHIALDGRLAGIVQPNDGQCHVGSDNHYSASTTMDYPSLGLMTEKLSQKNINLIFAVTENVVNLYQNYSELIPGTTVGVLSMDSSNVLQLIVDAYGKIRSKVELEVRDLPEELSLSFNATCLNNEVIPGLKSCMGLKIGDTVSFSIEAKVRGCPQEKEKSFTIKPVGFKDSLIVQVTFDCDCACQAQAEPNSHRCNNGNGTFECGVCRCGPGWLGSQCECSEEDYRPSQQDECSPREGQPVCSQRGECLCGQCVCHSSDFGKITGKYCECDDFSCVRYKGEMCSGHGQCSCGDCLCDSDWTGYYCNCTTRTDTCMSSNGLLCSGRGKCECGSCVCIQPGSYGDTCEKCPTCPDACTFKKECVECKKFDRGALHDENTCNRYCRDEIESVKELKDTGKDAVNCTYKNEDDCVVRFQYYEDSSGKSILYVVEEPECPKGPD
human αVβ1, sequence (P06756 31-992 limits assumed): as the sequence (P06756 31-992 limits assumed) above
human αVβ1, sequence (P05556 21-728 limits assumed): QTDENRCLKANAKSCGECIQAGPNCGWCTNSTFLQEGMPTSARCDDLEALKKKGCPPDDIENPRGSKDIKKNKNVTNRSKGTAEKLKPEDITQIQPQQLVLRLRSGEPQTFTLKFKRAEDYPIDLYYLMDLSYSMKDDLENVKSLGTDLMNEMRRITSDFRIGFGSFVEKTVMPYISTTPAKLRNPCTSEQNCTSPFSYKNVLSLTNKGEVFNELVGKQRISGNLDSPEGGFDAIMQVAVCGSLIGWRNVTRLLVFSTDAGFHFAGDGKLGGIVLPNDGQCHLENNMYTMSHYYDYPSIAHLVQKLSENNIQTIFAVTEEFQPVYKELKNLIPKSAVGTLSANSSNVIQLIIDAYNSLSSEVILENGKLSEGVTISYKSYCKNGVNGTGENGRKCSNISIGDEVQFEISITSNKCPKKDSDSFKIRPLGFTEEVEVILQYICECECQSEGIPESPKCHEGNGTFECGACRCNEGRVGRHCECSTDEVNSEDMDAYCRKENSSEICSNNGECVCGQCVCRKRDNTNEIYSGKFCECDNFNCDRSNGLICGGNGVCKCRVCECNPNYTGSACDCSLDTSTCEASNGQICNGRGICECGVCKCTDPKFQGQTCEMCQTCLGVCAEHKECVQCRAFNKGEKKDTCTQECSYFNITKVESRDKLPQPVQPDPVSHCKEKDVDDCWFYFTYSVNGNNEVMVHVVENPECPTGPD
T1 sequence (P06756 31-992 limits assumed): as the sequence (P06756 31-992 limits assumed) above
T1 sequence (P18564 22-707 limits assumed): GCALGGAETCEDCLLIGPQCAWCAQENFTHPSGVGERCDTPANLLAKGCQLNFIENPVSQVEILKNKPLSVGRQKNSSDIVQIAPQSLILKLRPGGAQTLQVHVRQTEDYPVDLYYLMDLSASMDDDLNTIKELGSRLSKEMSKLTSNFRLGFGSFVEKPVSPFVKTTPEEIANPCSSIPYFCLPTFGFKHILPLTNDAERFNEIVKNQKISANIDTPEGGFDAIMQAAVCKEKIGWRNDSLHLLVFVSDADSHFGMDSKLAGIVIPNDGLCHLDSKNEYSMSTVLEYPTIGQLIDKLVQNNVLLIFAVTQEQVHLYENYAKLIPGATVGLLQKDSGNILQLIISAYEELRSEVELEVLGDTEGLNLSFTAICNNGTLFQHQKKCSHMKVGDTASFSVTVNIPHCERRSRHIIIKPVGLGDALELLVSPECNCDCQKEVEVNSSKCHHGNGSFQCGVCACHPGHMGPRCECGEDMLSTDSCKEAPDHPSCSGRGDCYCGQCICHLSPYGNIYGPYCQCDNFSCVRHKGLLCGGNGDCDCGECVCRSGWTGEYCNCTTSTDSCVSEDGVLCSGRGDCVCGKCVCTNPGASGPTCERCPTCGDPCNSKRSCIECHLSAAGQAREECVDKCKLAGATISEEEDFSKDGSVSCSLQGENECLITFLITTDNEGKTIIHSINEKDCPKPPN
human αVβ8, sequence (P06756 31-992 limits assumed): as the sequence (P06756 31-992 limits assumed) above
human αVβ8, sequence (P26012 43-684 limits assumed): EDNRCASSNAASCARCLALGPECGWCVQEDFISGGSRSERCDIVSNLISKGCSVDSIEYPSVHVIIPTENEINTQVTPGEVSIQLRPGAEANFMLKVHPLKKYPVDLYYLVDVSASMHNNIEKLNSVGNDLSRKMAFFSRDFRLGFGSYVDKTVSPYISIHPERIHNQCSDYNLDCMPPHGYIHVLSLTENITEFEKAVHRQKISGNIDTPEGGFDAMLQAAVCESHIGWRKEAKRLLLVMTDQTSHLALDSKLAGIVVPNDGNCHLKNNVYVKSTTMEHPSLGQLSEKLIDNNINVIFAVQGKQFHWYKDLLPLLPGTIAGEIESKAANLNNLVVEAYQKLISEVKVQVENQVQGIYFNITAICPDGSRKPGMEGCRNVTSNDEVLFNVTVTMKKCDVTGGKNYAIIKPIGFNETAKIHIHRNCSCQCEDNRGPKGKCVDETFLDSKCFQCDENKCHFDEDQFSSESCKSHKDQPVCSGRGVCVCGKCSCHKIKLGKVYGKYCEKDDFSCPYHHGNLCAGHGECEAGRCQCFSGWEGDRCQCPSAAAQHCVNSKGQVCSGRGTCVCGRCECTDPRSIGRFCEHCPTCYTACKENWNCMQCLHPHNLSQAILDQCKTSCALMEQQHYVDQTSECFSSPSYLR

By IC50 is commonly meant the concentration that inhibits the measured activity by half. As to `O=C(O)CC(c1cnc2ccccc2c1)n1ncc2cc(OCCc3ccc4c(n3)NCCC4)ccc21` (stereo not drawn) [Example 48, 3-(Quinolin-3-yl)-3-(5-(2-(5,6,7,8-tetrahydro-1,8-naphthyridin-2-yl)ethoxy)-1H-indazol-1-yl)propanoic acid, TFA], the IC50 in assay [1] worked out at 5.5 nM; in assay [2] it was 270 nM; in assay [3], 3.8 nM; in assay [4], 0.54 nM; in assay [5] it was 4400 nM.
For `COc1ccc([C@H](CC(=O)O)n2cc3ccc(CCC4CCc5cccnc5N4)cc3n2)cn1` (stereo partly drawn) [Example 72, (3S)-3-(6-Methoxypyridin-3-yl)-3-(6-(2-(1,2,3,4-tetrahydro-1,8-naphthyridin-2-yl)ethyl)-2H-indazol-2-yl)propanoic acid], in that order: 8.2 nM, 740 nM, 4.4 nM, 1.5 nM and 3200 nM.
For `CCOc1ncc(C(CC(=O)O)n2ncc3cc(OCCc4ccc5c(n4)NCCC5)ccc32)cn1` (stereo not drawn) [Example 77, 3-(2-Ethoxypyrimidin-5-yl)-3-(5-(2-(5,6,7,8-tetrahydro-1,8-naphthyridin-2-yl)ethoxy)-1H-indazol-1-yl)propanoic acid, TFA], in that order: 5.8 nM, 170 nM, 2.8 nM, 0.39 nM and 5000 nM.
Regarding `O=C(O)C[C@@H](c1cnc2ccccc2c1)n1cc2ccc(CCC3CCc4cccnc4N3)cc2n1` (stereo partly drawn) [Example 83, (3S)-3-(Quinolin-3-yl)-3-(6-(2-(1,2,3,4-tetrahydro-1,8-naphthyridin-2-yl)ethyl)-2H-indazol-2-yl)propanoic acid], the concentration for half-maximal inhibition (IC50) in assay [1] was 4.7 nM; in assay [2], 360 nM; in assay [3], 4.1 nM; in assay [4], 2.2 nM; in assay [5] it was 5000 nM.
As to `O=C(O)C[C@@H](c1cnc2ccccc2c1)n1cc2ccc(CCCc3ccc4c(n3)NCCC4)cc2n1` [Example 87, (S)-3-(Quinolin-3-yl)-3-(6-(3-(5,6,7,8-tetrahydro-1,8-naphthyridin-2-yl)propyl)-2H-indazol-2-yl)propanoic acid], the IC50 was determined as 1.3 nM in assay [1]; 10000 nM in assay [2]; 2.3 nM in assay [3]; 3.2 nM in assay [4]; 3300 nM in assay [5].
Take `O=C(O)CC(c1cncc(CO)c1)n1ncc2cc(OCCc3ccc4c(n3)NCCC4)ccc21` (stereo not drawn) [Example 89, 3-(5-(Hydroxymethyl)pyridin-3-yl)-3-(5-(2-(5,6,7,8-tetrahydro-1,8-naphthyridin-2-yl)ethoxy)-1H-indazol-1-yl)propanoic acid]: the IC50 came to 19 nM in assay [1]; 370 nM in assay [2]; 3.1 nM in assay [3]; 0.42 nM in assay [4]; 5000 nM in assay [5].
Consider `COc1ncc(C(CC(=O)O)n2ncc3cc(OCCc4ccc5c(n4)NCCC5)ccc32)cn1` (stereo not drawn) [Example 92, 3-(2-Methoxypyrimidin-5-yl)-3-(5-(2-(5,6,7,8-tetrahydro-1,8-naphthyridin-2-yl)ethoxy)-1H-indazol-1-yl)propanoic acid, TFA], for which the IC50 in assay [1] turned out to be 31 nM; in assay [2] it was 210 nM; in assay [3], 2.4 nM; in assay [4], 0.39 nM; in assay [5], 5000 nM.
The matching figures for `O=C(O)CC(c1cnc2c(c1)OCCN2)n1ncc2cc(OCCc3ccc4c(n3)NCCC4)ccc21` (stereo not drawn) [Example 97, TFA]: 10 nM, 100 nM, 2.6 nM, 0.59 nM and 5000 nM.
The matching figures for `O=C(O)C[C@@H](c1cncc(CO)c1)n1ncc2cc(OCCc3ccc4c(n3)NCCC4)ccc21` [Example 100, (5)-3-(5-(Hydroxymethyl)pyridin-3-yl)-3-(5-(2-(5,6,7,8-tetrahydro-1,8-naphthyridin-2-yl)ethoxy)-1H-indazol-1-yl)propanoic acid]: 14 nM, 140 nM, 2.9 nM, 0.41 nM and 4400 nM.
The matching figures for `O=C(O)CC(c1cncc(C2OCCO2)c1)n1ncc2cc(OCCc3ccc4c(n3)NCCC4)ccc21` (stereo not drawn) [Example 104, 3-(5-(1,3-Dioxolan-2-yl)pyridin-3-yl)-3(5-(2-(5,6,7,8-tetrahydro-1,8-naphthyridin-2-yl)ethoxy)-1H-indazol-1yl)propanoic acid]: 12 nM, 30 nM, 2.61 nM, 0.28 nM and 1800 nM.
`O=C(O)CC(c1cnc2[nH]ncc2c1)n1ncc2cc(OCCc3ccc4c(n3)NCCC4)ccc21` (stereo not drawn) [Example 106, 3-(1H-Pyrazolo[3,4-b]pyridin-5-yl)-3-(5-(2-(5,6,7,8-tetrahydro-1,8-naphthyridin-2-yl)ethoxy)-1H-indazol-1-yl)propanoic acid, 2 TFA]: the IC50 in assay [1] was determined as 23 nM; in assay [2], 78 nM; in assay [3] it was 1.3 nM; in assay [4], 2.6 nM; in assay [5], 3000 nM.
For `CCOc1ncc([C@H](CC(=O)O)n2ncc3cc(OCCc4ccc5c(n4)NCCC5)ccc32)cn1` [Example 107, (S)-3-(2-Ethoxypyrimidin-5-yl)-3-(5-(2-(5,6,7,8-tetrahydro-1,8-naphthyridin-2-yl)ethoxy)-1H-indazol-1-yl)propanoic acid, TFA], in that order: 15 nM, 64 nM, 2.4 nM, 0.32 nM and 300 nM.
Turning to `Cn1ncc2cc(C(CC(=O)O)n3ncc4cc(OCCc5ccc6c(n5)NCCC6)ccc43)cnc21` (stereo not drawn) [Example 117, 3-(1-Methyl-1H-pyrazolo[3,4-b]pyridin5-yl)-3-(5-(2-(5,6,7,8-tetrahydro-1,8-naphthyridin-2-yl)ethoxy)-1H-indazol-1-yl)propanoic acid, 2 TFA], the IC50 came to 19 nM in assay [1]; 63 nM in assay [2]; 1.6 nM in assay [3]; 0.46 nM in assay [4]; 2200 nM in assay [5].
For `COc1ncc([C@H](CC(=O)O)n2cc3ccc(CCc4ccc5c(n4)NCCC5)cc3n2)cn1` [Example 118, (5)-3-(2-Methoxypyrimidin-5-yl)-3-(6-(2-(5,6,7,8-tetrahydro-1,8-naphthyridin-2-yl)ethyl)-2H-indazol-2-yl)propanoic acid], in that order: 12 nM, 4300 nM, 2 nM, 1.1 nM and 3100 nM.
For `O=C(O)CC(c1cnc(N2CCC2)nc1)n1ncc2cc(OCCc3ccc4c(n3)NCCC4)ccc21` (stereo not drawn) [Example 119, 3-(2-(Azetidin-1-yl)pyrimidin-5-yl)-3-(5-(2-(5,6,7,8-tetrahydro-1,8-naphthyridin-2-yl)ethoxy)-1H-indazol-1-yl)propanoic acid, 2 TFA], in that order: 10.6 nM, 98 nM, 1.4 nM, 0.6 nM and 4400 nM.
